# Experimental data reported in publication PMC6979384, “Characterization of the plant homeodomain (PHD) reader family for their histone tail interactions” (Epigenetics & Chromatin, 2020).
# What was measured:
# Assay in all cases: Histone peptide microarray
# Assay type in all cases: binding, human
# Conditions in all cases: total n = 4
# KDM5B (1) = test system: KDM5B (1)
# Procedure, shortened: (§1)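 A peptide microarray holding 293 synthetic histone peptides with individual or combinatorial modifications was probed with each GST-PHD protein at 0.5 μM. Values represent mean intensity (±SD) from four replicates.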
# ING1 = test system: ING1
# Procedure, shortened: as §1
# BAZ2B = test system: BAZ2B
# Procedure, shortened: as §1
# KDM4C (TTP) = test system: KDM4C (TTP)
# Procedure, shortened: as §1
# PHF2 = test system: PHF2
# Procedure, shortened: as §1
# KDM5A (1) = test system: KDM5A (1)
# Procedure, shortened: as §1
# PHF8 = test system: PHF8
# Procedure, shortened: as §1
# PHRF1 (RP) = test system: PHRF1 (RP)
# Procedure, shortened: as §1
# TRIM66 (PB) = test system: TRIM66 (PB)
# Procedure, shortened: as §1
# PHF23 = test system: PHF23
# Procedure, shortened: as §1
# ING4 = test system: ING4
# Procedure, shortened: as §1
# ING2 = test system: ING2
# Procedure, shortened: as §1
# TAF3 = test system: TAF3
# Procedure, shortened: as §1
# CHD4 (PPCC) = test system: CHD4 (PPCC)
# Procedure, shortened: as §1
# DIDO1 = test system: DIDO1
# Procedure, shortened: as §1
# CHD5 (PCC) = test system: CHD5 (PCC)
# Procedure, shortened: as §1
# SP140L = test system: SP140L
# Procedure, shortened: as §1
# KDM5A (3) = test system: KDM5A (3)
# Procedure, shortened: as §1
# BPTF (PB) = test system: BPTF (PB)
# Procedure, shortened: as §1
# ING5 = test system: ING5
# Procedure, shortened: as §1
# MORC3 (CW) = test system: MORC3 (CW)
# Procedure, shortened: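 GST-tagged PHD finger readers were expressed, purified and applied at 0.5 μM to a microarray of 293 synthetic histone peptides carrying single or combinatorial PTMs, using an optimized protocol. Binding signals are averages with standard deviation from 4 replicates.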
# CHD5 (PPCC) = test system: CHD5 (PPCC)
# Procedure, shortened: as §1
# MLL5 = test system: MLL5
# Procedure, shortened: as §1
# DPF2 (PPC2W2) = test system: DPF2 (PPC2W2)
# Procedure, shortened: as §1
# PHF13 = test system: PHF13
# Procedure, shortened: as §1
# KDM7A = test system: KDM7A
# Procedure, shortened: as §1
# RAG2 = test system: RAG2
# Procedure, shortened: as §1
# AIRE (PP) = test system: AIRE (PP)
# Procedure, shortened: as §1
# ING3 = test system: ING3
# Procedure, shortened: as §1
# KDM5B (3) = test system: KDM5B (3)
# Procedure, shortened: as §1
# PHF21A = test system: PHF21A
# Procedure, shortened: as §1
# [1] = sheet "Array Heatmap", GST-tagged reader, histone peptide array
substance,measurement,setting,value
H3K4me3 + K9ac + S10p: H3 1-20,"Array Heatmap signal, KDM5B (1)",KDM5B (1); [1],0.5673
same,"Array Heatmap signal, ING1",ING1; [1],0.6226
same,"Array Heatmap signal, BAZ2B",BAZ2B; [1],0.4222
same,"Array Heatmap signal, KDM4C (TTP)",KDM4C (TTP); [1],0.4439
same,"Array Heatmap signal, PHF2",PHF2; [1],0.6992
same,"Array Heatmap signal, KDM5A (1)",KDM5A (1); [1],0.422
same,"Array Heatmap signal, PHF8",PHF8; [1],0.4377
same,"Array Heatmap signal, PHRF1 (RP)",PHRF1 (RP); [1],0.5333
same,"Array Heatmap signal, TRIM66 (PB)",TRIM66 (PB); [1],0.5913
same,"Array Heatmap signal, PHF23",PHF23; [1],0.5778
same,"Array Heatmap signal, ING4",ING4; [1],0.4594
same,"Array Heatmap signal, ING2",ING2; [1],0.7056
same,"Array Heatmap signal, TAF3",TAF3; [1],0.3627
same,"Array Heatmap signal, CHD4 (PPCC)",CHD4 (PPCC); [1],0.6064
same,"Array Heatmap signal, DIDO1",DIDO1; [1],0.8464
same,"Array Heatmap signal, CHD5 (PCC)",CHD5 (PCC); [1],0.7803
same,"Array Heatmap signal, SP140L",SP140L; [1],0.3742
same,"Array Heatmap signal, KDM5A (3)",KDM5A (3); [1],0.592
same,"Array Heatmap signal, BPTF (PB)",BPTF (PB); [1],0.3713
same,"Array Heatmap signal, ING5",ING5; [1],0.3414
same,"Array Heatmap signal, MORC3 (CW)",MORC3 (CW); [1],0.5046
same,"Array Heatmap signal, CHD5 (PPCC)",CHD5 (PPCC); [1],0.5185
same,"Array Heatmap signal, MLL5",MLL5; [1],0.6372
same,"Array Heatmap signal, DPF2 (PPC2W2)",DPF2 (PPC2W2); [1],0.6858
same,"Array Heatmap signal, PHF13",PHF13; [1],0.601
same,"Array Heatmap signal, KDM7A",KDM7A; [1],0.3478
same,"Array Heatmap signal, RAG2",RAG2; [1],0.3673
same,"Array Heatmap signal, AIRE (PP)",AIRE (PP); [1],0.4053
same,"Array Heatmap signal, ING3",ING3; [1],0.5024
same,"Array Heatmap signal, KDM5B (3)",KDM5B (3); [1],0.4789
same,"Array Heatmap signal, PHF21A",PHF21A; [1],0.4669
H3K4me3 + K9ac: H3 1-20,Array Heatmap signal (histone peptide microarray),"KDM5B (1); GST-tagged KDM5B (1), sheet Array Heatmap, each array performed twice",0.7027
same,Array Heatmap signal (histone peptide microarray),"ING1; GST-tagged ING1, sheet Array Heatmap, each array performed twice",0.8182
same,Array Heatmap signal (histone peptide microarray),"BAZ2B; GST-tagged BAZ2B, sheet Array Heatmap, each array performed twice",0.4768
same,Array Heatmap signal (histone peptide microarray),"KDM4C (TTP); GST-tagged KDM4C (TTP = Tandem Tudor domain + PHD), sheet Array Heatmap, each array performed twice",0.5829
same,Array Heatmap signal (histone peptide microarray),"PHF2; GST-tagged PHF2, sheet Array Heatmap, each array performed twice",0.9106
same,Array Heatmap signal (histone peptide microarray),"KDM5A (1); GST-tagged KDM5A (1), sheet Array Heatmap, each array performed twice",0.468
same,Array Heatmap signal (histone peptide microarray),"PHF8; GST-tagged PHF8, sheet Array Heatmap, each array performed twice",0.6077
same,Array Heatmap signal (histone peptide microarray),"PHRF1 (RP); GST-tagged PHRF1 (RP), sheet Array Heatmap, each array performed twice",0.6133
same,Array Heatmap signal (histone peptide microarray),"TRIM66 (PB); GST-tagged TRIM66 (PB = PHD + Bromodomain), sheet Array Heatmap, each array performed twice",0.6603
same,Array Heatmap signal (histone peptide microarray),"PHF23; GST-tagged PHF23, sheet Array Heatmap, each array performed twice",0.8466
same,Array Heatmap signal (histone peptide microarray),"ING4; GST-tagged ING4, sheet Array Heatmap, each array performed twice",0.6305
same,Array Heatmap signal (histone peptide microarray),"ING2; GST-tagged ING2, sheet Array Heatmap, each array performed twice",0.8738
same,Array Heatmap signal (histone peptide microarray),"TAF3; GST-tagged TAF3, sheet Array Heatmap, each array performed twice",0.7366
same,Array Heatmap signal (histone peptide microarray),"CHD4 (PPCC); GST-tagged CHD4 (PPCC = Dual PHD + Dual Chromodomain), sheet Array Heatmap, each array performed twice",0.6185
same,Array Heatmap signal (histone peptide microarray),"DIDO1; GST-tagged DIDO1, sheet Array Heatmap, each array performed twice",0.9386
same,Array Heatmap signal (histone peptide microarray),"CHD5 (PCC); GST-tagged CHD5 (PCC = PHD + Dual Chromodomain), sheet Array Heatmap, each array performed twice",0.7875
same,Array Heatmap signal (histone peptide microarray),"SP140L; GST-tagged SP140L, sheet Array Heatmap, each array performed twice",0.3446
same,Array Heatmap signal (histone peptide microarray),"KDM5A (3); GST-tagged KDM5A (3), sheet Array Heatmap, each array performed twice",0.93
same,Array Heatmap signal (histone peptide microarray),"BPTF (PB); GST-tagged BPTF (PB = PHD + Bromodomain), sheet Array Heatmap, each array performed twice",0.6012
same,Array Heatmap signal (histone peptide microarray),"ING5; GST-tagged ING5, sheet Array Heatmap, each array performed twice",0.4241
same,Array Heatmap signal (histone peptide microarray),"MORC3 (CW); GST-tagged MORC3 (CW = CW-type Zn-finger), sheet Array Heatmap, each array performed twice",0.7776
same,Array Heatmap signal (histone peptide microarray),"CHD5 (PPCC); GST-tagged CHD5 (PPCC = Dual PHD + Dual Chromodomain), sheet Array Heatmap, each array performed twice",0.5612
same,Array Heatmap signal (histone peptide microarray),"MLL5; GST-tagged MLL5, sheet Array Heatmap, each array performed twice",0.8313
same,Array Heatmap signal (histone peptide microarray),"DPF2 (PPC2W2); GST-tagged DPF2 (PPC2W2 = Dual PHD + C2W2-type Zn-finger), sheet Array Heatmap, each array performed twice",0.7108
same,Array Heatmap signal (histone peptide microarray),"PHF13; GST-tagged PHF13, sheet Array Heatmap, each array performed twice",0.7477
same,Array Heatmap signal (histone peptide microarray),"KDM7A; GST-tagged KDM7A, sheet Array Heatmap, each array performed twice",0.4556
same,Array Heatmap signal (histone peptide microarray),"RAG2; GST-tagged RAG2, sheet Array Heatmap, each array performed twice",0.8735
same,Array Heatmap signal (histone peptide microarray),"AIRE (PP); GST-tagged AIRE (PP), sheet Array Heatmap, each array performed twice",0.4068
same,Array Heatmap signal (histone peptide microarray),"ING3; GST-tagged ING3, sheet Array Heatmap, each array performed twice",0.8165
same,Array Heatmap signal (histone peptide microarray),"KDM5B (3); GST-tagged KDM5B (3), sheet Array Heatmap, each array performed twice",0.7448
same,Array Heatmap signal (histone peptide microarray),"PHF21A; GST-tagged PHF21A, sheet Array Heatmap, each array performed twice",0.4382
